Measurements as given in US8697727B2, “N-substituted-heterocycloalkyloxybenzamide compounds and methods of use” (Rigel Pharmaceuticals, Inc., priority 2006, dated 2014).

Each molecule was assayed on AMPK (assay: AMPK activation, enzyme-linked immunosorbent assay).
Assay type: cell-based
Outline: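 Cell-based assay in which AMPK activity was measured as the relative concentration of phosphorylated acetyl-CoA carboxylase, a product of AMPK, by enzyme-linked immunosorbent assay. The endpoint is the EC50 for AMPK activation of each compound. EC50 values were reported in ranges: less than 1 μM, 1-10 μM, 10-20 μM, 20-50 μM, 50-100 μM, and >100 μM.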

Structure (SMILES) | EC50 [nM]
O=C(NC1CCN(Cc2ccccc2)CC1)c1cccc(OC2CCN(c3ccc(C(F)(F)F)cc3)CC2)c1 [Compound 46, N-(1-benzylpiperidin-4-yl)-3-(1-(4-(trifluoromethyl)phenyl)piperidin-4-yloxy)benzamide] | < 1000
O=C(NC1CCN(Cc2ccccc2)CC1)c1ccc(OC2CCN(c3ccc(C(F)(F)F)cc3)CC2)c(F)c1 [Compound 23, N-(1-benzylpiperidin-4-yl)-3-fluoro-4-(1-(4-(trifluoromethyl)phenyl)piperidin-4-yloxy)benzamide] | < 1000
N#Cc1ccc(CN2CCC(NC(=O)c3ccc(OC4CCN(c5ccc(C#N)cc5)CC4)c(F)c3)CC2)cc1 [Compound 45, N-(1-(4-cyanobenzyl)piperidin-4-yl)-4-(1-(4-cyanophenyl)piperidin-4-yloxy)-3-fluorobenzamide] | < 1000
O=C(NC1CCN(Cc2ccccc2)CC1)c1cccc(OC2CCN(Cc3ccc(C(F)(F)F)cc3)CC2)c1 [Compound 52, N-(1-benzylpiperidin-4-yl)-3-(1-(4-(trifluoromethyl)benzyl)piperidin-4-yloxy)benzamide] | 1000 to 10000
O=C(NC1CCN(c2ccccc2)CC1)c1ccc(OC2CCN(c3ccc(C(F)(F)F)cc3)CC2)c(F)c1 [Compound 25, 3-fluoro-N-(1-phenylpiperidin-4-yl)-4-(1-(4-(trifluoromethyl)phenyl)piperidin-4-yloxy)benzamide] | > 100000
O=C(NC1CCN(Cc2ccccc2)CC1)c1ccc(OC2CCN(Cc3ccc(F)cc3)CC2)c(Cl)c1 [Compound 19, N-(1-benzylpiperidin-4-yl)-3-chloro-4-(1-(4-fluorobenzyl)piperidin-4-yloxy)benzamide] | < 1000
O=C(NC1CCN(Cc2ccccc2)CC1)c1ccc(OC2CCN(Cc3ccc(C(F)(F)F)cc3)CC2)c(F)c1 [Compound 55, N-(1-benzylpiperidin-4-yl)-3-fluoro-4-(1-(4-(trifluoromethyl)benzyl)piperidin-4-yloxy)benzamide] | < 1000
O=C(NC1CCN(Cc2ccc(F)cc2)CC1)c1ccc(OC2CCN(c3ccc(C(F)(F)F)cc3)CC2)c(F)c1 [Compound 27, 3-fluoro-N-(1-(4-fluorobenzyl)piperidin-4-yl)-4-(1-(4-(trifluoromethyl)phenyl)piperidin-4-yloxy)benzamide] | < 1000
COc1cc(C(=O)NC2CCN(Cc3ccccc3)CC2)ccc1OC1CCN(c2cccs2)CC1 [Compound 8, N-(1-benzylpiperidin-4-yl)-3-methoxy-4-(1-(thiophen-2-yl)piperidin-4-yloxy)benzamide] | 1000 to 10000
O=C(NC1CCN(Cc2ccccc2)CC1)c1cccc(OC2CCN(c3ccccn3)CC2)c1 [Compound 86, N-(1-benzylpiperidin-4-yl)-3-(1-(pyridin-2-yl)piperidin-4-yloxy)benzamide] | < 1000
COc1ccc(CN2CCC(Oc3ccc(C(=O)N4CCN(C(=O)OC(C)(C)C)CC4)cc3)CC2)cc1 [Compound 96, tert-butyl 4-(4-(1-(4-methoxybenzyl)piperidin-4-yloxy)benzoyl)piperazine-1-carboxylate] | 1000 to 10000
O=C(NC1CCN(Cc2ccccc2)CC1)c1ccc(OC2CCN(Cc3ccc(C(F)(F)F)cc3)CC2)c(Cl)c1 [Compound 56, N-(1-benzylpiperidin-4-yl)-3-chloro-4-(1-(4-(trifluoromethyl)benzyl)piperidin-4-yloxy)benzamide] | < 1000
O=C(NC1CCN(Cc2ccccc2)CC1)c1ccc(OC2CCN(c3ccc(C(F)(F)F)cc3)CC2)c(Cl)c1 [Compound 17, N-(1-benzylpiperidin-4-yl)-3-chloro-4-(1-(4-(trifluoromethyl)phenyl)piperidin-4-yloxy)benzamide] | < 1000
O=C(O)c1ccc(CN2CCC(NC(=O)c3ccc(OC4CCN(c5ccc(C(F)(F)F)cc5)CC4)c(F)c3)CC2)cc1 [Compound 35, 4-((4-(3-fluoro-4-(1-(4-(trifluoromethyl)phenyl)piperidin-4-yloxy)benzamido)piperidin-1-yl)methyl)benzoic acid] | 1000 to 10000

Further lines, results first:

EC50 [nM] | Structure (SMILES)
< 1000 | O=C(NC1CCN(Cc2ccccn2)CC1)c1ccc(OC2CCN(c3ccc(C(F)(F)F)cc3)CC2)c(F)c1 [Compound 32, 3-fluoro-N-(1-(pyridin-2-ylmethyl)piperidin-4-yl)-4-(1-(4-(trifluoromethyl)phenyl)piperidin-4-yloxy)benzamide]
1000 to 10000 | O=C(NC1CCN(Cc2ccccc2)CC1)c1ccc(OC2CCN(C(=O)c3ccc(F)cc3)CC2)c(Cl)c1 [Compound 22, N-(1-benzylpiperidin-4-yl)-3-chloro-4-(1-(4-fluorobenzoyl)piperidin-4-yloxy)benzamide]
1000 to 10000 | O=C(NC1CCN(Cc2ccccc2)CC1)c1ccc(OC2CCN(Cc3ccco3)CC2)cc1 [Compound 3, N-(1-benzylpiperidin-4-yl)-4-(1-(furan-2-ylmethyl)piperidin-4-yloxy)benzamide]
< 1000 | CC(C)(C)c1ccc(CN2CCC(Oc3ccc(C(=O)NC4CCN(c5ccccc5)CC4)cc3F)CC2)cc1 [Compound 36, 4-(1-(4-tert-butylbenzyl)piperidin-4-yloxy)-3-fluoro-N-(1-phenylpiperidin-4-yl)benzamide]
< 1000 | O=C(NC1CCN(Cc2ccccc2)CC1)c1ccc(OC2CCN(Cc3ccc(F)cc3)CC2)c(F)c1 [Compound 61, N-(1-benzylpiperidin-4-yl)-3-fluoro-4-(1-(4-fluorobenzyl)piperidin-4-yloxy)benzamide]
< 1000 | O=C(NC1CCN(Cc2ccccc2)CC1)c1ccc(OC2CCN(C(=O)c3ccc(C(F)(F)F)cc3)CC2)c(Cl)c1 [Compound 18, N-(1-benzylpiperidin-4-yl)-3-chloro-4-(1-(4-(trifluoromethyl)benzoyl)piperidin-4-yloxy)benzamide]
< 1000 | O=C(NC1CCN(Cc2ccccc2)CC1)c1ccc(OC2CCN(Cc3ccc(OC(F)(F)F)cc3)CC2)c(F)c1 [Compound 57, N-(1-benzylpiperidin-4-yl)-3-fluoro-4-(1-(4-(trifluoromethoxy)benzyl)piperidin-4-yloxy)benzamide]
< 1000 | O=C(NC1CCN(Cc2ccccc2)CC1)c1ccc(OC2CCN(Cc3ccc(OC(F)(F)F)cc3)CC2)c(Cl)c1 [Compound 54, N-(1-benzylpiperidin-4-yl)-3-chloro-4-(1-(4-(trifluoromethoxy)benzyl)piperidin-4-yloxy)benzamide]
1000 to 10000 | N#Cc1cccc(CN2CCC(Oc3cccc(C(=O)NC4CCN(Cc5ccccc5)CC4)c3)CC2)c1 [Compound 89, N-(1-benzylpiperidin-4-yl)-3-(1-(3-cyanobenzyl)piperidin-4-yloxy)benzamide]
1000 to 10000 | O=C(NC1CCN(Cc2ccccc2)CC1)c1ccc(OC2CCN(c3ccco3)CC2)c(Cl)c1 [Compound 11, N-(1-benzylpiperidin-4-yl)-3-chloro-4-(1-(furan-2-yl)piperidin-4-yloxy)benzamide]
< 1000 | N#Cc1ccc(CN2CCC(Oc3c(Cl)cc(C(=O)NC4CCN(Cc5ccccc5)CC4)cc3Cl)CC2)cc1 [Compound 77, N-(1-benzylpiperidin-4-yl)-3,5-dichloro-4-(1-(4-cyanobenzyl)piperidin-4-yloxy)benzamide]
< 1000 | O=C(NC1CCN(Cc2ccccc2)CC1)c1ccc(OC2CCN(Cc3ccc(F)c(F)c3)CC2)c(F)c1 [Compound 69, N-(1-benzylpiperidin-4-yl)-4-(1-(3,4-difluorobenzyl)piperidin-4-yloxy)-3-fluorobenzamide]
